The structures appear in SMILES notation. Values joined by “and” are separate entries in the source; they are usually repeats but may differ in a detail not shown here. Equal entries are not always repeated.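 Test compounds were applied to cells in 96-well plates for 48 hours at 5 doses. GI50 marks 50% less growth. TGI: total growth inhibition.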

Some test systems named below: KM20L2 colon; LXFL 529 NSCLC; XF 498 CNS; RXF-631 renal; M19-MEL melanoma; SNB-78 CNS; HOP-18 NSCLC; DMS 273 small cell lung; MDA-N; P388 leukemia; SN12K1 renal; P388/ADR leukemia.
What all share (assay): NCI tumour cell line growth inhibition, 48 h

With `COC1=CC(=O)C(Br)=CC1=O`, the TGI was > 100 µM in the assay on KM20L2 colon; 31.2 µM with LXFL 529 NSCLC; 31.5 µM in the assay with XF 498 CNS; 99.2 µM in the assay with RXF-631 renal; 32 µM in the assay on M19-MEL melanoma.

`O=C(N/C(=C\c1c(O)ccc2ccccc12)c1nc2ccccc2[nH]1)c1ccccc1`: the TGI in the assay on KM20L2 colon, in the assay on LXFL 529 NSCLC, in the assay on SNB-78 CNS, in the assay with XF 498 CNS, with RXF-631 renal and in the assay with HOP-18 NSCLC was > 100 µM in each case. In addition, the TGI in the assay on DMS 273 small cell lung and in the assay on M19-MEL melanoma was > 100 µM in each case.

With `Cn1cnc([N+](=O)[O-])c1Sc1nnnn1C`, the TGI in the assay on LXFL 529 NSCLC is 24.4 µM; in the assay with SNB-78 CNS, 30.2 µM; with XF 498 CNS, 30 µM; in the assay on HOP-18 NSCLC it was 21.5 µM; with DMS 273 small cell lung, 36.1 µM; in the assay on M19-MEL melanoma it was 29.9 µM.

Consider `CCN(CCCl)CCCCCNc1c2ccccc2nc2ccc(OC)cc12`, for which the TGI worked out at 4.38 µM with KM20L2 colon; 1.93 µM with LXFL 529 NSCLC; 8.57 µM in the assay on SNB-78 CNS; 1.36 µM in the assay with XF 498 CNS; 1.78 µM with DMS 273 small cell lung; 2.15 µM with M19-MEL melanoma.

`O=C(O)C(Br)C(Br)C(=O)O` (configuration not stated): in the assay with MDA-N, the TGI is > 100 µM.

For `Cc1c(NC(=O)CCl)c(=O)oc2c(C)c3occc(=O)c3cc12`, the TGI in the assay with MDA-N is 31 µM.

As to `CC(CN1CC(=O)NC(=O)C1)N1CC(=O)NC(=O)C1` (configuration not stated), the TGI in the assay on P388 leukemia was > 750 µM; in the assay with KM20L2 colon, > 750 µM; in the assay on SN12K1 renal, > 750 µM; in the assay on SNB-78 CNS, > 750 µM; with XF 498 CNS, > 690 µM; in the assay on HOP-18 NSCLC, > 511 µM. The TGI in the assay on DMS 273 small cell lung was > 750 µM; in the assay with M19-MEL melanoma, 745 µM; with P388/ADR leukemia it was > 750 µM; in the assay on MDA-N, > 750 µM. Besides, the GI50 with SN12K1 renal is 67.1 µM.

As to `Cc1ccc(NC(=O)C(=O)C(C(=O)c2ccc3ccccc3c2)C2OC(=O)c3ccccc32)c(C)c1` (configuration not stated), the TGI amounted to 56 µM in the assay with KM20L2 colon; 20.4 µM with LXFL 529 NSCLC; 72.6 µM in the assay with SNB-78 CNS; 10.7 µM in the assay with XF 498 CNS; 20.6 µM in the assay with RXF-631 renal; 29.5 µM in the assay on HOP-18 NSCLC. In the assay with M19-MEL melanoma, the TGI came to 22.6 µM.

Turning to `CCN(CC)CCC(=O)OC1C(C)=CC(C)C(=O)CC(C(C)CC2CCC(O)C(OC)C2)OC(=O)C2CCCCN2C(=O)C(=O)[C@@]2(O)OC(CCC2C)CC(OC)\C(C)=C/C=C/C=C/C(C)CC(C)C(=O)C1OC` (some centres not stated), the TGI with MDA-N was found to be 21.7 µM.

Take `O=C(O)CNc1ccc(Cl)c(Cl)c1`: the TGI with MDA-N came out at 73 µM.

On to `CCOc1cc(C(=O)O)c2c(ccc3ccc(OC)c(OC)c32)c1OC`, for which the TGI in the assay with MDA-N is > 100 µM.

Turning to `COc1cc(O)c(C(=O)CC(C)=O)c(OC)c1`, the TGI in the assay on KM20L2 colon, in the assay with LXFL 529 NSCLC, with SNB-78 CNS, with XF 498 CNS, in the assay with HOP-18 NSCLC and in the assay with DMS 273 small cell lung was > 100 µM in each case.

With `Cc1c(N)nc([C@H](CC(N)=O)NC[C@H](N)C(N)=O)nc1C(=O)N[C@H](C(=O)N[C@H](C)[C@@H](O)CC(=O)N[C@H](C(=O)NC(O[C@@H]1O[C@@H](C)[C@@H](N)[C@@H](O)[C@H]1O)C(O)c1nc(-c2nc(C(=O)NCCCCN)cs2)cs1)[C@@H](C)O)[C@@H](O[C@@H]1O[C@@H](CO)[C@@H](O)[C@H](O)[C@@H]1O[C@H]1O[C@H](CO)[C@@H](O)[C@H](OC(N)=O)[C@@H]1O)c1c[nH]cn1` (some centres not stated), in the assay on MDA-N, the TGI is > 50 µM.

Take `CCCN(CCC)CCc1cc(C(C)=O)n(S(=O)(=O)c2ccc(C)cc2)c1`: the TGI in the assay on LXFL 529 NSCLC, in the assay on SNB-78 CNS, with HOP-18 NSCLC, in the assay on DMS 273 small cell lung and with M19-MEL melanoma was > 100 µM in each case.

For `O=C1NC(O)c2ccccc2O1` (configuration not stated), the TGI with MDA-N was > 100 µM.

On to `CN(C)CCNC(=O)c1cccc2nc3ccc4cccnc4c3nc12`, for which the TGI came out at 11.3 µM with SNB-78 CNS; 11.8 µM with RXF-631 renal; 6.66 µM in the assay on HOP-18 NSCLC; 1.4 µM in the assay on DMS 273 small cell lung; 1.62 µM in the assay with M19-MEL melanoma.

As for `COC1CC(C)C(OC)c2cc(O)cc(c2O)NC(=O)/C(C)=C/C=C\C(C)C(OC(N)=O)/C(C)=C\C(C)C1OC` (configuration not stated), the GI50 in the assay on KM20L2 colon is 0.21 µM; in the assay on M19-MEL melanoma, 0.498 µM. The TGI is 7.64 µM with LXFL 529 NSCLC; 18.3 µM in the assay on SNB-78 CNS; 16.5 µM with HOP-18 NSCLC; 0.905 µM and 6.33 µM with DMS 273 small cell lung; 15.2 µM and 10.7 µM in the assay on M19-MEL melanoma; 18.2 µM in the assay with P388/ADR leukemia. For the same compound, the TGI in the assay on MDA-N was 13.3 µM and 6.75 µM.

Turning to `COc1cccc2c1C(=O)c1c(O)c3c(c(O)c1C2=O)C[C@@](O)(C(C)=O)C[C@@H]3OC1CC([N+]([O-])(Cc2ccccc2)Cc2ccccc2)C(O)C(C)O1` (some centres not stated), the TGI in the assay on KM20L2 colon came to 2.92 µM; in the assay on LXFL 529 NSCLC, 2.31 µM; in the assay with XF 498 CNS, 2.63 µM; in the assay with RXF-631 renal, 2.93 µM; in the assay on HOP-18 NSCLC it was 3.55 µM; in the assay on M19-MEL melanoma, 2.76 µM.

For the compound `CSC(=Nc1ccccc1Cl)NC(=O)c1ccc(Br)cc1`, the TGI in the assay on KM20L2 colon was > 100 µM; in the assay on LXFL 529 NSCLC, > 100 µM; in the assay on SNB-78 CNS it was 88.6 µM; with XF 498 CNS it was > 100 µM; with HOP-18 NSCLC, 94.1 µM; with M19-MEL melanoma, > 100 µM.

Consider `NCCOCn1cc(Cc2cccc(OCc3ccccc3)c2)c(=O)[nH]c1=O`, for which the TGI in the assay with KM20L2 colon, with LXFL 529 NSCLC, in the assay with SNB-78 CNS, in the assay with HOP-18 NSCLC and in the assay with DMS 273 small cell lung was > 100 µM throughout.

The record behind these values is PubChem BioAssay (NCI).
